Test results as given in US10010525B2, “Methods of inducing anesthesia” (The Regents of the University of California, priority 2012, dated 2018).
Read-outs that look alike come from different tables or passages of the source.

Tests used:
[1] = Loss of righting reflex in Sprague-Dawley rats (inhaled agent); assay type: in vivo
Protocol: 1,1,2,2,3,3,4,5-octafluorocyclopentane (CAS#828-35-3) caused a loss of righting reflex in 4 healthy Sprague-Dawley rats at a concentration of 3.3±0.4 (mean±SD) percent of 1 atmosphere. […] After discontinuing the agent, rats were awake and ambulatory in less than 1 minute. […] Despite a lack of NMDA receptor effects, 1,1,2,2,3,3,4,5-octafluorocyclopentane is able to produce the desired pharmacologic endpoints of unconsciousness and immobility that appears similar to desirable effects produced by conventional agents.

[2] = tested on: glycine receptors; assay: Glycine receptor modulation in vitro; assay type: cell-based
[3] = molecular target: T1, NMDA (NR1/NR2A) receptors (Rattus norvegicus, UniProt P35439+Q00959); assay: NMDA receptor two-electrode voltage clamp in oocytes at saturated drug concentration; assay type: cell-based; settings: saturating aqueous concentration
T1 construct: expressed in transfected cells; host or cells: Xenopus laevis oocytes (RNA injection, 1:1)
T1 sequence (Q00959 23-1464, other chains not shown): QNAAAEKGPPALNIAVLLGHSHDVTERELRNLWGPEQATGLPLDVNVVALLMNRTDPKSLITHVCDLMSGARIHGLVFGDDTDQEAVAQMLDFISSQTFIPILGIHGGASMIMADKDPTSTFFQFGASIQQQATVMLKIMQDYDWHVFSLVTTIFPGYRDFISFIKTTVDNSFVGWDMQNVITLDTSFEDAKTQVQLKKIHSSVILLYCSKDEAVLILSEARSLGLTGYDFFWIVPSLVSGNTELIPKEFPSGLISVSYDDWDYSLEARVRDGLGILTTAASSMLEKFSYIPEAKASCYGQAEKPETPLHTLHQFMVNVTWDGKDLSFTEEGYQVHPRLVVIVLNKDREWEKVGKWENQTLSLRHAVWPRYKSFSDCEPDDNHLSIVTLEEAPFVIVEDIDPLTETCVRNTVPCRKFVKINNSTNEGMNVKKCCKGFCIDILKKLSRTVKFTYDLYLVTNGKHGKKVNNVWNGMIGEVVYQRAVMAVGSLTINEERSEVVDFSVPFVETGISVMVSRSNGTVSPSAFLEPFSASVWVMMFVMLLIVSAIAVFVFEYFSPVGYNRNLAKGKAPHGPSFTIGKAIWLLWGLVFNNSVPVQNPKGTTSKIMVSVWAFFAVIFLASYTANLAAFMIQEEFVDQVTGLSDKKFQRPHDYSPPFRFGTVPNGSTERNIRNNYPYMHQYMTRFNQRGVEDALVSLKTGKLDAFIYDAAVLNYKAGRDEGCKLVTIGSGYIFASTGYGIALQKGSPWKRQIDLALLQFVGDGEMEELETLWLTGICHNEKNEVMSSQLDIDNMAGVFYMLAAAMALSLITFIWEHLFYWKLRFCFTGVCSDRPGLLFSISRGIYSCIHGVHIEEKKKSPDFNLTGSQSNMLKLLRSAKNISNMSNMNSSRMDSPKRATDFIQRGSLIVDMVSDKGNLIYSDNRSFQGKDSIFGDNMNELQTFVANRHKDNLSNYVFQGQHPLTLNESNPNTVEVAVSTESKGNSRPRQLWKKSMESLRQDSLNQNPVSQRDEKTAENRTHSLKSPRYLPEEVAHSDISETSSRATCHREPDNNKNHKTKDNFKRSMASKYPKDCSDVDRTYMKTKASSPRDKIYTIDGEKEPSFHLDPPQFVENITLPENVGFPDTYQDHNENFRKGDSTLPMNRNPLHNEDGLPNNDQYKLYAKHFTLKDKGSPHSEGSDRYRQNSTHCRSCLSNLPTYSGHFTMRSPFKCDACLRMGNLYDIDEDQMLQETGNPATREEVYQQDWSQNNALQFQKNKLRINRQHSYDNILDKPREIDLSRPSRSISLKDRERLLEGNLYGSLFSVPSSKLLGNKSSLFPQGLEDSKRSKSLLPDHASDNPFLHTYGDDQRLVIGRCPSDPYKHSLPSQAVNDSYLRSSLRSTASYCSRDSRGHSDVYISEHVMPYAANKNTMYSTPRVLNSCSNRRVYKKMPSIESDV
Excerpt: (§1) GABAA (α1β2γ2s) or NMDA (NR1/NR2A) receptors were expressed in oocytes and studied using standard two-electrode voltage clamp techniques. Hydrocarbons from 14 different organic functional groups were studied at saturated concentrations, and compounds within each group differed only by the carbon number at the ω-position or within a saturated ring. An effect on GABAA or NMDA receptors was defined as a 10% or greater reversible current change from baseline that was statistically different from zero.
(§2) An ovary from tricaine-anesthetized Xenopus laevis frogs was surgically removed using a protocol approved by the Institutional Animal Care and Use Committee at the University of California, Davis. Following manual disruption of the ovarian lobule septae, the ovary was incubated in 0.2% Type I collagenase (Worthington Biochemical, Lakewood, N.J.) to defolliculate oocytes which were washed and stored in fresh and filtered modified Barth's solution composed of 88 mM NaCl, 1 mM KCl, 2.4 mM NaHCO3, 20 mM HEPES, 0.82 mM MgSO4, 0.33 mM Ca(NO3)2, 0.41 mM CaCl2, 5 mM sodium pyruvate, gentamycin, penicillin, streptomycin, and corrected to pH=7.4. All salts and antibiotics were A.C.S. grade (Fisher Scientific, Pittsburgh, Pa.).
(§3) Clones used were provided as a gift from Dr. R. A. Harris (University of Texas, Austin) and were sequenced and compared to references in the National Center for Biotechnology Information database to confirm the identity of each gene. GABAA receptors were expressed using clones for the human GABAA α1 and the rat GABAA β2 and γ2s subunits in pCIS-II vectors. […] In separate oocytes, glutamate receptors were expressed using rat NMDA NR1 clones in a pCDNA3 vector and rat NMDA NR2A clones in a Bluescript vector. RNA encoding each subunit was prepared using a commercial transcription kit (T7 mMessage mMachine, Ambion, Austin, Tex.) was mixed in a 1:1 ratio, and 1-10 ng of total RNA was injected into oocytes and studied 1-2 days later.
Briefly, baseline perfusion solutions were the same as for GABAA with the substitution of equimolar BaCl2 for calcium salts and the addition of 0.1 mM EGTA; this constituted barium frog Ringer's solution (BaFR). Agonist solutions for NMDA studies also contained 0.1 mM glutamate (E) and 0.01 mM glycine (G) to constitute a BaFREG solution.
The syringe pump and perfusion chamber apparatus as well as the clamp holding potential and baseline-agonist exposure protocols were identical to that described for the GABAA studies. The same test compounds, concentrations, and preparative methods were used in NMDA voltage clamp studies as in the GABAA voltage clamp studies (Table 2).
(§4) Modulating drug responses were calculated as the percent of the control (baseline) peak as follows: 100·ID/IB, where ID and IB were the peak currents measured during agonist+drug and agonist baseline perfusions, respectively. When present, direct receptor activation by a drug was similarly calculated as a percent of the agonist response. […] A lack of receptor response (cut-off) was defined as a<10% change from baseline current that was statistically indistinguishable from zero using a two-tailed Student t-test.

[4] = molecular target: T2, GABAA (α1β2γ2s) receptors (UniProt P14867+P18508+P63138); assay: GABAA receptor two-electrode voltage clamp in oocytes at saturated drug concentration; assay type: cell-based, human α1, rat β2 and γ2s; settings: saturating aqueous concentration
T2 construct: expressed in transfected cells; host or cells: Xenopus laevis oocytes (intranuclear plasmid injection, α1:β2:γ2 = 1:1:10)
T2 sequence (P14867 28-456): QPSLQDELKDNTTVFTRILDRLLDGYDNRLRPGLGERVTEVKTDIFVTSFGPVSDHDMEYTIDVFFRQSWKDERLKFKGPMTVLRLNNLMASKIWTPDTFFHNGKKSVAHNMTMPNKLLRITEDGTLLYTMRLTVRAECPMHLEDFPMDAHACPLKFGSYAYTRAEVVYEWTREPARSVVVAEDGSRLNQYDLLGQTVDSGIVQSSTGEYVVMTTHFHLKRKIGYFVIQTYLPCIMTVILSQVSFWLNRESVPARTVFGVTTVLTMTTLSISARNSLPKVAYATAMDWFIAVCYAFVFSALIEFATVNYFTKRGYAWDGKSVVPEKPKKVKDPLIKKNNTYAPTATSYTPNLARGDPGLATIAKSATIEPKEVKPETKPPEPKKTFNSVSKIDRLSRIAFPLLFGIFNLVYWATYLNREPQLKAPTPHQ
T2 sequence (P63138 25-474 limits assumed): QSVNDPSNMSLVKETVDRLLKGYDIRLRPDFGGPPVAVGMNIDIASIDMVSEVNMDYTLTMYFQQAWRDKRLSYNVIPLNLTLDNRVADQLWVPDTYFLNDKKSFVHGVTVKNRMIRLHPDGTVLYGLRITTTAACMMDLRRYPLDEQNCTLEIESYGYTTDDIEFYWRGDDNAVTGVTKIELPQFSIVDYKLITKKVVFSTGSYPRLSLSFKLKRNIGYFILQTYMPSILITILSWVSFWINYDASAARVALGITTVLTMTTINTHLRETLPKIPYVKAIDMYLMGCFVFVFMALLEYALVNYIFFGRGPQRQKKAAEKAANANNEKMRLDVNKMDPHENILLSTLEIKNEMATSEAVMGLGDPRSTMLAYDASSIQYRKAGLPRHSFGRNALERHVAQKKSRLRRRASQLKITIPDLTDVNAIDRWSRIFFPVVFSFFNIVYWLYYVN
T2 sequence (P18508 39-466): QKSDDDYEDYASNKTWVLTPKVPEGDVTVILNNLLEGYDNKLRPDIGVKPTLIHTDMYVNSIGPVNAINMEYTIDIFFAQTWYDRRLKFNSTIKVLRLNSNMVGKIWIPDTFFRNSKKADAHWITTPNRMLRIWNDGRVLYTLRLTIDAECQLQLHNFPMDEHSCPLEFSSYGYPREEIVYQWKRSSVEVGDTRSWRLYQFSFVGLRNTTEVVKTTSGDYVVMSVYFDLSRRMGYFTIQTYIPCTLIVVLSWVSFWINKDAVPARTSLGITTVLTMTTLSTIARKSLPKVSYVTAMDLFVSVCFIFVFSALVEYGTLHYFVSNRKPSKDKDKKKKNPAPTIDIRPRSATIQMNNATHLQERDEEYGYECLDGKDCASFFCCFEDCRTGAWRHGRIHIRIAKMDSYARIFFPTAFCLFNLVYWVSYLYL
Excerpt: as §1, §2, §3
Oocytes were studied in a 250 μL linear-flow perfusion chamber with solutions administered by syringe pump at 1.5 ml/min with gastight glass syringes and Teflon tubing. Oocyte GABAA currents were studied using standard two-electrode voltage clamping techniques at a holding potential of […] using a 250 μL channel linear-flow perfusion chamber with solutions administered by syringe pump at 1.5 mL/min.
After FR perfusion for 5 min, oocytes were exposed to 30 sec FR-GABA followed by another 5 min FR washout; this was repeated until stable GABAA-elicited peaks were obtained. Next, FR containing a saturated solution of the study drug (Table 2)—or for gaseous study compounds a vapor pressure equal to 90% of barometric pressure with balance oxygen—was used to perfuse the oocyte chamber for 2 min followed by perfusion with a FR-GABA solution containing the identical drug concentration for 30 sec.
as §4

[5] = tested on: inhibitory potassium channels; assay: Inhibitory potassium channel modulation in vitro; assay type: cell-based; settings: some inhibitory potassium channels
[6] = Histopathology of heart, lung, kidney and liver tissues after anesthesia; assay type: in vivo, ND4 mice; settings: collected 2 days later
Protocol: (§5) HFCP caused loss of righting reflex (a surrogate measure of unconsciousness) in 4 healthy ND4 mice at 1.0±0.2 (mean±SD) percent of 1 atmosphere. […] After 2 hours of anesthesia, mice were awake after about 1 minute of discontinuing HFCP administration. […] Despite a lack of NMDA receptor effects, 1,1,2,2,3,3,4-heptafluorocyclopentane is able to produce the desired pharmacologic endpoints of unconsciousness and immobility that appears similar to desirable effects produced by conventional agents.

[7] = Stability in soda lime; assay type: physicochemical
Excerpt: Divalent bases (and sometimes monovalent bases) are used for CO2 absorption in anesthetic circuits; clinically-useful agents must therefore be stable in the presence of strong bases. […] Anesthetics should also be resistant to hydrolysis and redox reactions in vivo. Compounds with ester linkages can be thermally unstable or hydrolysed by plasma and tissue cholinesterases; and those compounds resistant to hydrolysis may likely cause undesirable inhibition of these enzymes (which are essential for metabolism of other drugs). Therefore, compounds with ester linkages are not preferred. Anesthetics with non-aromatic unsaturated carbon linkages have been used historically (fluroxene, isopropenyl vinyl ether, trichloroethylene, vinethylene, ethylene) and shown to undergo extensive metabolism that for some agents was associated with toxicity. Agents containing double or triple carbon bonds are not preferred.

[8] = Loss of righting reflex in mice (inhaled agent); assay type: in vivo
Protocol: as §5

[9] = aqueous phase; Human; cited from earlier work
[10] = tested on: 3-transmembrane (TM3) and 4-transmembrane (TM4) receptors; settings: grouped by calculated molar solubility in unbuffered water at 25° C.; cited from earlier work
[11] = tested on: GABAA receptor; settings: 365 μM ketamine; cited from earlier work
[12] = molecular target: NMDA receptor; settings: read-out: IC50, inhibition of NMDA receptor currents; cited from earlier work
[13] = read-out: Aqueous EC50; aqueous phase; Rat; cited from earlier work
[14] = tested on: oocyte; assay: Cytotoxicity during oocyte electrophysiology studies; assay type: cell-based, Xenopus laevis
Excerpt: These compounds are not preferred. Other structures previously known to be highly toxic to animals or humans (such as silanes and boranes) are not preferred.

Row | Structure (SMILES) | glycine receptor modulation (in words) [2] | NMDA receptor modulation (in words) [3] | GABAA receptor modulation (in words) [4] | inhibitory potassium channel modulation (in words) [5] | EC50 [9] [µM] | ion channel modulation, TM3 versus TM4 receptors (FIG. 2) [10] | also measured
1 | FC1C(F)C(F)(F)C(F)(F)C1(F)F (stereo not drawn) [1,1,2,2,3,3,4,5-octafluorocyclopentane] | potentiates | no effect | potentiates | potentiates |  |  | concentration causing loss of righting reflex ([1]; 4 healthy Sprague-Dawley rats, mean±SD, inhaled): 3.3±0.4% of 1 atmosphere; excitement or coughing during anesthetic induction ([1]; rats): without excitement or coughing; time to awake and ambulatory after discontinuing the agent ([1]; rats): less than 1 minute
2 | FC1CC(F)(F)C(F)(F)C1(F)F (stereo not drawn) [HFCP, 1,1,2,2,3,3,4-heptafluorocyclopentane] | potentiates | no effect | potentiates | potentiates |  |  | histopathology of heart, lung, kidney and liver tissues [6]: no evidence of inflammation or toxicity; stability in soda lime [7]: stable in soda lime; concentration causing loss of righting reflex ([8]; 4 healthy ND4 mice, mean±SD, inhaled): 1.0±0.2% of 1 atmosphere; excitement or coughing during anesthetic induction ([8]; mice): no excitement or coughing; time to awake after discontinuing administration ([8]; mice, after 2 hours of anesthesia): about 1 minute
3 | CNC1(c2ccccc2Cl)CCCCC1=O (stereo not drawn) [Ketamine] |  |  |  |  | 2 | modulate both 3-transmembrane (TM3) and TM4 receptors | increase of GABAA receptor currents [11]: 56%
4 | CC(C)c1cccc(C(C)C)c1O [Propofol] |  |  |  |  |  | modulate both 3-transmembrane (TM3) and TM4 receptors | IC50 [12]: 160 µM; EC50 [13]: 2 µM
5 | CCCC(C)C1(CC)C(=O)NC(=S)NC1=O (stereo not drawn) [Thiopental] |  |  |  |  | 25 |  | 
6 | C1CCNC1 [pyrrolidine] |  |  |  |  |  |  | cytotoxicity during oocyte electrophysiology studies [14]: cytotoxicity
